Source: ChEMBL document CHEMBL4354789, “Recent advances in the discovery of indoleamine 2,3-dioxygenase 1 (IDO1) inhibitors” (Medchemcomm, 2019)
Values belong to the molecule of their own block, whether it stands above or below them.

Key:
[1] = target: T1, Indoleamine 2,3-dioxygenase 1 (Homo sapiens, UniProt P14902); test: Inhibition of recombinant human IDO1 expressed in Escherichia coli assessed as reduction in formation of kynurenine using L-tryptophan as substrate measured after 30 mins
[2] = target: T1, Indoleamine 2,3-dioxygenase 1; test: Inhibition of IDO1 in HEK293 cells assessed as reduction in L-kynurenine formation incubated for 48 hrs using L-tryptophan as substrate; format: cell-based
[3] = Half life in human cancer patient at 2000 mg bid for 28 days by LC-MS method; format: ADME; details: in vivo
[4] = Tmax in human cancer patient at 2000 mg bid for 28 days by LC-MS method; format: ADME; details: in vivo
[5] = tested on: Plasmodium falciparum; test: Antimalarial activity against chloroquine-sensitive Plasmodium falciparum 3D7 infected in erythrocytes assessed as reduction in parasite growth preincubated for 48 hrs followed by addition of [3H]Hypoxanthine and measured after 24 hrs by radiometric method; format: functional, organism-based
[6] = target: T1, Indoleamine 2,3-dioxygenase 1; test: Inhibition of IDO1 in IFNgamma-indced human HeLa cells incubated for 48 hrs using L-tryptophan as substrate by colorimetric analysis; format: cell-based
[7] = target: T1, Indoleamine 2,3-dioxygenase 1; test: Inhibition of recombinant human IDO1 using L-tryptophan as substrate preincubated for 15 mins followed by substrate addition by methylene blue staining based spectrometric method
[8] = target: T2, Indoleamine 2,3-dioxygenase 1 (Mus musculus, UniProt P28776); test: Inhibition of mouse IDO1 expressed in Escherichia coli Rosetta (DE3) cells
T2 sequence (P28776 whole entry): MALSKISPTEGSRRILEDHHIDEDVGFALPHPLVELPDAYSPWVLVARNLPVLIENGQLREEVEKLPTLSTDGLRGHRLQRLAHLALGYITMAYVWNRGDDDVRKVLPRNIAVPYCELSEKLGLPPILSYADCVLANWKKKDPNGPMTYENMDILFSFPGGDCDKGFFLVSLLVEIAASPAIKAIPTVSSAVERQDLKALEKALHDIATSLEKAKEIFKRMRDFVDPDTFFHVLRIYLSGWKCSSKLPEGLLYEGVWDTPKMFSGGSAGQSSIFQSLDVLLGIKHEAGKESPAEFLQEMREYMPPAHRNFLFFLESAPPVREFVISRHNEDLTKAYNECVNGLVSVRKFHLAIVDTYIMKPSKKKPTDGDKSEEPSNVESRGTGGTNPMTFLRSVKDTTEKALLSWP

[9] = tested on: A549; test: Cytotoxicity against human A549 cells assessed as growth inhibition after 72 hrs by MTT assay; format: functional; details: A549, 72 h
[10] = tested on: Jurkat; test: Cytotoxicity against human Jurkat cells assessed as growth inhibition after 72 hrs by MTT assay; format: functional
[11] = target: T1, Indoleamine 2,3-dioxygenase 1; test: Inhibition of recombinant human IDO1 expressed in Escherichia coli assessed as reduction in formation of kynurenine using L-tryptophan as substrate by methylene blue staining based assay
[12] = target: T1, Indoleamine 2,3-dioxygenase 1; test: Inhibition of recombinant human His6-tagged IDO1 using L-tryptophan as substrate preincubated for 10 mins and measured after 30 mins
[13] = Antitumour activity in mouse B16 cells pretreated with compound followed by tumour implantation assessed as reduction in tumour size after 4 days relative to control; set-up: scale not given: the % may be the effect or the level left
[14] = target: T1, Indoleamine 2,3-dioxygenase 1; test: Inhibition of IDO1 (unknown origin)
[15] = target: T1, Indoleamine 2,3-dioxygenase 1; test: Inhibition of recombinant human His6-tagged IDO1 expressed in Escherichia coli BL21DE3pLysS cells assessed as reduction in N-formyl-kynurenine level using L-tryptophan as substrate incubated for 60 mins
[16] = target: T1, Indoleamine 2,3-dioxygenase 1; test: Inhibition of human IDO1 expressed in COS1 cells assessed as reduction in N-formyl-kynurenine level incubated for 16 hrs; format: cell-based
[17] = target: T2, Indoleamine 2,3-dioxygenase 1; test: Inhibition of mouse IDO1 expressed in COS1 cells assessed as reduction in N-formyl-kynurenine level incubated for 16 hrs; format: cell-based
[18] = tested on: Homo sapiens; test: In vivo inhibition of IDO1 in human patient assessed as reduction in Serum kynurenine level at 100 to 200 mg, po qd for 2 weeks co-treated with nivo-lumab relative to control; format: functional
[19] = tested on: Homo sapiens; test: In vivo inhibition of IDO1 in human patient assessed as reduction in Serum kynurenine level at 25 to 200 mg, po qd for 2 weeks co-treated with nivo-lumab relative to control; format: functional
[20] = target: T1, Indoleamine 2,3-dioxygenase 1; test: Inhibition of recombinant human IDO1 expressed in COS1 cells by colorimetric method; format: cell-based
[21] = target: T1, Indoleamine 2,3-dioxygenase 1; test: Inhibition of IDO1 in LPS-induced human THP1 cells
[22] = target: T1, Indoleamine 2,3-dioxygenase 1; test: Inhibition of recombinant human N-terminal His-tagged IDO1 expressed in Escherichia coli using L-tryptophan as substrate incubated for 60 mins by HPLC analysis

T1 sequence (P14902 whole entry): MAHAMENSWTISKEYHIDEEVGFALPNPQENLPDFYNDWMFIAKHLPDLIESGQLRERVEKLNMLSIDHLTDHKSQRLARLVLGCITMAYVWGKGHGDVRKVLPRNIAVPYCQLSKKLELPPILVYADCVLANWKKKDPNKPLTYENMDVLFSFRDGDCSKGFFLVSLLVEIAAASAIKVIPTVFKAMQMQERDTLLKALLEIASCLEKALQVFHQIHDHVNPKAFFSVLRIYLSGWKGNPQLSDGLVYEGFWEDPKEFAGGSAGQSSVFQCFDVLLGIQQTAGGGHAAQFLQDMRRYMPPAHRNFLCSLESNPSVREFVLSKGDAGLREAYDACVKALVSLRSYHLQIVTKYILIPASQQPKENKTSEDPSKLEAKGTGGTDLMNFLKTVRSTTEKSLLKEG

Compound: COC1=CC(=O)c2c(oc(C)c2CO)C1=O
- IC50 [1]: 0.24 µM

Compound: NOCc1cccc(Cl)c1
- IC50 [5]: 0.109 µM

Compound: C[C@@]12CC[C@H](O)CC1=C(O)C(=O)c1cc3c(cc12)C(=O)C1=C(C3=O)S(=O)(=O)CCN1
- IC50 [11]: 4 µM

Compound: O[C@H](C[C@H]1c2c(F)cccc2-c2cncn21)[C@H]1CC[C@H](O)CC1 [NAVOXIMOD]
- Activity [13]: 95%

Compound: CSC(=S)NCc1c[nH]c2ccc(Br)cc12
- Ki [15]: 24.5 µM
- EC50 [16]: 24 µM
- EC50 [17]: 26.1 µM

Compound: C[C@@H](C(=O)Nc1ccc(Cl)cc1)[C@H]1CC[C@@H](c2ccnc3ccc(F)cc32)CC1
- inhibition (INH) [18]: >60%
- inhibition (INH) [19]: >45%

Compound: CN1C(=O)C(Cc2c[nH]c3ccccc23)NC1=S (configuration not stated) [NECROSTATIN]
- EC50 [20]: 12.8 µM

Compound: CC1(C)CCC[C@]2(C)[C@H]3CCC(C=O)C[C@H](O)[C@]3(C=O)CC[C@@H]12 (some centres not stated)
- IC50 [21]: 0.045 µM
- IC50 [22]: 7.7 µM

Continued, in another order:

- IC50 [2]: 0.067 µM
Compound: Clc1ccc(Nc2cn[nH]n2)cc1

- half-life [3]: 10.5 h
- Tmax [4]: 2.9 h
Compound: Cn1cc(C[C@H](N)C(=O)O)c2ccccc21 (racemic) [(L)-1-METHYLTRYPTOPHAN]

- IC50 [6]: 18 µM
- IC50 [7]: 18 µM
Compound: CCOc1cc(C(=O)NC(=S)Nc2c(O)ccc3ccccc23)cc(OCC)c1OCC

- IC50 [8]: 0.164 µM
Compound: Nc1ccc2cc3cccc[n+]3cc2c1
- GI50 [9]: 86 µM
- GI50 [10]: 62 µM

- IC50 [12]: 0.0803 µM
Compound: COc1nsc2c1C(=O)c1c(O)cccc1C2=O

- IC50 [14]: 14.5 µM
Compound: COc1cc(OC(=O)c2c(C)c(O)c(OC(=O)c3c(C)cc(O)c(C)c3O)c(C)c2OC)c(C)c(C)c1C(=O)O
